Test results reported in patent US20190030053A1, “COMPOSITION FOR INCREASING EXPRESSION OF PGC-1alpha” (BENEBIOSIS CO., LTD., priority 2016, published 2019).

Legend:
[1] = tested on: mouse aortic smooth muscle cells (MASMs); assay: Mitochondrial superoxide production (MitoSOX Red) in MASMs of arteriosclerosis model mice; type: cell-based; conditions: MASMs from PGC-1α+/+ApoE−/− mice; SL added to culture liquid
Experimental: For the measurement of mitochondrial superoxide production, mitochondrial ROS was measured using MitoSOX Red (mitochondrial superoxide fluorescent marker). MASMs were extracted, and incubated with MitoSOX (4 μM) in the dark room at 37° C. for 20 minutes. The MitoSOX fluorescence was quantified by the cell fluorescence intensity read using a fluorescent plate reader (480 nm excitation/580 nm emission) (FIG. 19b).
In FIGS. 19a and 19b, MASMs were extracted from the model mouse (PGC-1α^+/+ApoE^−/−) control group, and the SL (3′-SL & 6′-SL) compositions were added to the culture liquid to conduct comparison.
FIGS. 19a and 19b show the measurement results of intercellular H2O2 (ROS values) (FIG. 19a) and the measurement results of mitochondrial superoxide production (FIG. 19b). MASMs were extracted from the model mice (PGC-1α^+/+ApoE^−/−), and the SL (3′-SL & 6′-SL) compositions were added to the culture liquid to conduct comparison.

[2] = tested on: PGC-1α and related genes; assay: Gene expression in brain and hippocampus of Parkinson's disease models; type: in vivo, rat; conditions: 6-OHDA SD rats, oral 0.1 mg/kg/day
From the text: In order to investigate the changes in gene expression and behavior improvement by the treatment with SL (3′-SL & 6′-SL) compositions in Parkinson's brain disease models, 13-week-old normal SD rats and Parkinson's brain disease models were purchased from Central Lab Animal (Korea). Water was freely accessible, and a commercially available pellet feed (Dooyeul Biotech, Korea) was given for one week. At 14 weeks of age, the SD rats were divided into four groups (composed of 8 animals per group): Eight 14-week-old male SD rats (normal rats; initial body weight, average 355.6±32.3 g) treated with a normal diet were used for a control group. […]
Sialyllactose or DW was orally administered daily. […] The dietary intake and body weight change were measured every 5 days. […]
The gene expression changes by the treatment with SL (3′-SL & 6′-SL) compositions were quantitatively compared in two main organs (brain and hippocampus) associated with bran diseases. RNA was extracted by TRIzol agent (Invitrogen). cDNA was synthesized by using RNA, which has been extracted as above and quantified, and a reverse transcription system (Promega, USA). The expression patterns of PGC-1α and related genes were measured by using pre-designed primers and probes (Applied Biosystems; PGC-1α, Mm00447181_m1, GAPDH, and Mm99999915_q1) for the synthesized cDNA and analysis targets (Fndc5, PGC-1α, Erra, UCP1, BDNF, SOD2, and GPX1). […]

Row | Structure (SMILES) | mitochondrial superoxide production [1] | expression levels of PGC-1α and related genes vs SL non-administration (Parkinson's disease model) group [2] | expression levels of PGC-1α and related genes vs normal control group [2]
1 | CC(=O)N[C@H]1[C@H]([C@H](O)[C@H](O)CO)O[C@@](O[C@H]2[C@@H](O)[C@@H](CO)O[C@@H](O[C@H]3[C@H](O)[C@@H](O)C(O)O[C@@H]3CO)[C@@H]2O)(C(=O)O)C[C@@H]1O (stereo partly drawn) [3′-SL, α-NeuNAc-(2→3)-β-D-Gal-(1→4)-D-Glc] | inhibited the mitochondrial superoxide production | relatively low compared with 6′-SL | –
2 | CC(=O)N[C@H]1[C@H]([C@H](O)[C@H](O)CO)O[C@@](OC[C@H]2O[C@@H](O[C@H]3[C@H](O)[C@@H](O)[C@H](O)O[C@@H]3CO)[C@H](O)[C@@H](O)[C@H]2O)(C(=O)O)C[C@@H]1O [6′-SL, α-NeuNAc-(2→6)-β-D-Gal-(1→4)-D-Glc] | inhibited the mitochondrial superoxide production | very high | somewhat lower
